How the values were obtained:
Assay in all cases: relative viability (nuclei count vs DMSO), 5 days (fraction); higher = more cells survive
Shikonin + AZD7762 = compound: CC(C)=CC[C@@H](O)C1=CC(=O)c2c(O)ccc(O)c2C1=O [Shikonin] + NC(=O)Nc1cc(-c2cccc(F)c2)sc1C(=O)N[C@H]1CCCNC1 [AZD7762] (partner 0.2 µM)
In short: (§1)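 After 5 days of treatment, lung cancer cells in 1536-well plates were fixed and stained in a single step (final 0.05% Triton X-100, 1% formaldehyde, 1 ug/ml Hoechst) and their nuclei counted on 4× images. Treatment had been applied by pin tool the day after seeding as one drug alone or as a fixed anchor-drug dose with five library-drug doses (not always all listed) in √10 steps. Relative viability is the nuclei count of treated wells divided by that of vehicle wells, and values are medians of duplicate plates.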

[1] = compound: CC(C)N(CCCNC(=O)Nc1ccc(C(C)(C)C)cc1)C[C@H]1O[C@@H](n2ccc3c(N)ncnc32)[C@H](O)[C@@H]1O + N=C(N)NC(=N)NCCc1ccccc1 [Phenformin] (partner 250 µM)
In short: as §1

Shikonin + Tozasertib = compound: CC(C)=CC[C@@H](O)C1=CC(=O)c2c(O)ccc(O)c2C1=O [Shikonin] + Cc1cc(Nc2cc(N3CCN(C)CC3)nc(Sc3ccc(NC(=O)C4CC4)cc3)n2)n[nH]1 [Tozasertib] (partner 0.1 µM)
In short: as §1

Shikonin + Pemetrexed = compound: CC(C)=CC[C@@H](O)C1=CC(=O)c2c(O)ccc(O)c2C1=O [Shikonin] + Nc1nc2[nH]cc(CCc3ccc(C(=O)N[C@@H](CCC(=O)O)C(=O)O)cc3)c2c(=O)[nH]1 [Pemetrexed] (partner 0.2 µM)
In short: as §1

Cell Line	relative viability (Shikonin + AZD7762; first compound 0.01 µM)	relative viability (Shikonin + AZD7762; first compound 0.1 µM)	relative viability (Shikonin + AZD7762; first compound 0.3162 µM)	relative viability (Shikonin + AZD7762; first compound 1 µM)	relative viability ([1]; first compound 0.08 µM)	relative viability ([1]; first compound 0.253 µM)	relative viability ([1]; first compound 0.8 µM)	relative viability ([1]; first compound 2.53 µM)	relative viability ([1]; first compound 8 µM)	relative viability (Shikonin + Tozasertib; first compound 0.01 µM)	relative viability (Shikonin + Tozasertib; first compound 0.1 µM)	relative viability (Shikonin + Tozasertib; first compound 0.3162 µM)	relative viability (Shikonin + Tozasertib; first compound 1 µM)	relative viability (Shikonin + Pemetrexed; first compound 0.01 µM)	relative viability (Shikonin + Pemetrexed; first compound 0.1 µM)	relative viability (Shikonin + Pemetrexed; first compound 0.3162 µM)	relative viability (Shikonin + Pemetrexed; first compound 1 µM)
NCI-H358	0.425	0.62	0.607	0.603	0.291	0.303	0.383	0.286	0.273	0.104	0.102	0.0979	0.0975	0.159	0.182	0.172	0.154
NCI-H441	1.39	0.935	1.16	1.43	0.813	0.923		0.776	0.824	0.898	0.617	0.663	0.601	0.282	0.223	0.252	0.266
NCI-H460	0.739	0.874	0.597	0.658	0.493	0.555	0.54	0.485	0.436	0.456	0.496	0.483	0.414	0.0561	0.0603	0.06	0.063
NCI-H522	0.912	0.957	0.864	0.806	0.606	0.673	0.677	0.664	0.56	0.599	0.555	0.615	0.572	0.937	1	1.3	1.22
NCI-H596	1.06	1.14	1.09	1.09	0.819		0.626	0.781	0.713	0.79	0.83	0.914	0.732	0.502	0.536	0.414	0.475
NCI-H647	0.646	0.406	0.429	0.529	0.469	0.559		0.478	0.568	0.407	0.323	0.247	0.193	0.194	0.174	0.183	0.156
NCI-H650	0.962	1.07	1.17	0.947	0.433	0.456	0.514	0.417	0.411	0.69	0.793	0.788	0.66	0.87	0.987	1.13	0.857
NCI-H838	0.97	1.03	0.97	1.1	0.487	0.394	0.551	0.551	0.51	0.289	0.264	0.257	0.29	0.234	0.24	0.243	0.258
NCI-H1355	0.739	0.898	0.825	0.787	0.441	0.444	0.387	0.48	0.432	0.559	0.553	0.554	0.583	1.13	1.15	1.02	1.06
NCI-H1395	0.375	0.409	0.366	0.448	0.433	0.436	0.43	0.438	0.424	0.794	0.842	0.806	0.763	0.84	0.944	0.85	1.01
NCI-H1437	1.12	1.1	1.15	1.11	0.278	0.344	0.276	0.294	0.309	0.417	0.43	0.405	0.455	0.332	0.37	0.291	0.354
NCI-H1651	0.487	0.517	0.536	0.44	0.34	0.302	0.295	0.288	0.35	0.8	0.783	0.744	0.748	0.631	0.748	0.606	0.652
NCI-H1666	0.776	0.9	1	0.887	0.546	0.594	0.543	0.586	0.542	0.622	0.636	0.665	0.522	0.869	0.854	0.916	0.861
NCI-H1734	0.557	0.552	0.595	0.55	0.38	0.331	0.398	0.4	0.397	0.288	0.284	0.302	0.161	0.413	0.479	0.434	0.382
NCI-H1755	0.384	0.422	0.373	0.427	0.62	0.609	0.614	0.632	0.554	0.578	0.521	0.506	0.532	0.453	0.409	0.477	0.417
NCI-H1793	0.555	0.531	0.494	0.629	0.396		0.336	0.371	0.316	0.353	0.322	0.332	0.498	0.808	1.05	0.798	1.11

Source: the supplement of paper PMC10307832
